SMILES strings stand for the structures.

Holding throughout (assay): Test A post-emergence
Common to all, as to design: key: 0 = no effect, 10 = maximum effect; letter = response symbol

In test [1] the test system is cassia. Format: in vivo, Cassia tora. In outline: (§1)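 Seeds and tubers were treated preemergence in a growth medium with compound in a nonphytotoxic solvent, against untreated controls; emerged plants such as two-leaf barnyardgrass and five-leaf cotton were sprayed postemergence, against solvent-sprayed controls. After sixteen days in a greenhouse, response was rated visually from 0 to 10.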

Test [2] has as its system wild oats. Type of test: in vivo, Avena fatua. In outline:
as §1

For test [3], the system named is sorghum. Type of test: in vivo. The method, boiled down:
as §1

Test [4] has as its system soybean. Format: in vivo. The method, boiled down: as §1
The test system of test [5] is wheat. Type of test: in vivo. In outline: as §1
Test [6] concerns rice. Format: in vivo. In outline: as §1
The test system of test [7] is corn. Format: in vivo. In outline:
as §1

The test system of test [8] is morningglory. Format: in vivo, Ipomoea spp. The method, boiled down:
as §1

The test system of test [9] is bush bean. Type of test: in vivo, bush beans. Particulars: 0.4 kg/ha.
Test [10] concerns barnyardgrass. Type of test: in vivo, Echinochloa crusgalli. In outline: as §1
Test [11] concerns cocklebur. Type of test: in vivo, Xanthium spp. The method, boiled down: as §1
For test [12], the system named is crabgrass. Format: in vivo, Digitaria spp. In outline:
as §1

Test [13] concerns nutsedge. Type of test: in vivo, Cyperus rotundus. In outline: as §1
Test [14] relates to cotton. Type of test: in vivo. As to conditions: 0.4 kg/ha. In outline:
as §1

Take `C=CCOC(=O)c1ccccc1S(=O)(=O)NC(=O)Nc1nc(C)nc(OC)n1` [drawing 451]: the response rating in [1] (0.4 kg/ha), in [2] (0.4 kg/ha), in [3] (0.4 kg/ha), in test [4] (0.4 kg/ha), in test [5] (0.4 kg/ha) and in test [6] (0.4 kg/ha) was 9C each time. Also, the response rating was 9C in [7] (0.4 kg/ha); 10C in test [8] (0.4 kg/ha); 9C in [9]; 9C in test [10] (0.4 kg/ha); 10C in test [11] (0.4 kg/ha).

As to `COC(=O)c1cc(Cl)c(Cl)cc1S(=O)(=O)NC(=O)Nc1nc(C)cc(OC)n1` [drawing 452], the response rating in [1] (0.4 kg/ha) came to 2C; in test [2] (0.4 kg/ha) it was 0; in [12] (0.4 kg/ha), 2G; in test [3] (0.4 kg/ha) it was 5G; in test [5] (0.4 kg/ha), 0; in test [6] (0.4 kg/ha), 2C. The results for the response rating in test [7] (0.4 kg/ha), in [13] (0.4 kg/ha) and in test [10] (0.4 kg/ha) were 2G, 6G and 7H, respectively.

As for `CCCCOC(=O)c1ccccc1S(=O)(=O)NC(=O)Nc1nc(C)cc(OC)n1` [drawing 440], the response rating in test [1] (2 kg/ha) came out at 9C; in test [2] (0.4 kg/ha), 8G; in [12] (0.4 kg/ha) it was 3G; in test [3] (2 kg/ha), 9C; in test [4] (2 kg/ha), 9C; in [5] (2 kg/ha), 8C. Also, the response rating is listed as 8C in test [6] (2 kg/ha); 9C in [7] (2 kg/ha); 9C in [8] (0.4 kg/ha); 10C in [8] (2 kg/ha); 9C in test [13] (2 kg/ha); 10C in test [10] (0.4 kg/ha). The response rating in test [10] (2 kg/ha) is 10C; in test [11] (0.4 kg/ha), 9C; in test [11] (2 kg/ha), 10C.

As for `CCCCCCCCCCOC(=O)c1ccccc1S(=O)(=O)NC(=O)Nc1nc(C)nc(OC)n1` [drawing 430], the response rating in test [2] (0.4 kg/ha) worked out at 0; in [12] (0.4 kg/ha), 0; in test [4] (0.4 kg/ha), 6H; in test [5] (0.4 kg/ha), 0; in test [6] (0.4 kg/ha) it was 6G; in [7] (0.4 kg/ha), 7H. The response rating in [13] (0.4 kg/ha) is 2G; in [10] (0.4 kg/ha), 2H.

Regarding `COc1cc(C)nc(NC(=O)NS(=O)(=O)c2ccccc2C(=O)N(C)C)n1` [drawing 465], the response rating in test [1] (0.4 kg/ha), in test [2] (0.4 kg/ha), in test [3] (0.4 kg/ha), in test [4] (0.4 kg/ha), in [5] (0.4 kg/ha) and in test [6] (0.4 kg/ha) was 9C each time. Moreover, the response rating in [7] (0.4 kg/ha) is 9C; in test [8] (0.4 kg/ha), 10C; in test [10] (0.4 kg/ha), 10C.

As to `COc1nc(NC(=O)NS(=O)(=O)c2ccccc2C(=O)OCCCl)nc(OC)n1` [drawing 422], the response rating was 10C in test [1] (0.4 kg/ha); 2C in test [12] (0.4 kg/ha); 1C in test [5] (0.4 kg/ha); 6G in test [6] (0.4 kg/ha); 9C in [14]; 10C in test [8] (0.4 kg/ha). Further, the figures for the response rating in test [13] (0.4 kg/ha), in test [9] and in [11] (0.4 kg/ha) were 10C, 9C and 10C, respectively.

As for `COCCCOc1cc(C)nc(NC(=O)NS(=O)(=O)c2ccccc2C(=O)OC)n1` [drawing 470], the response rating in [1] (0.4 kg/ha) is listed as 9C; in [12] (0.4 kg/ha) it was 9C; in test [3] (0.4 kg/ha), 9C; in [4] (0.4 kg/ha), 8C; in [6] (0.4 kg/ha) it was 8C; in [7] (0.4 kg/ha), 9C. Besides, the response rating in [13] (0.4 kg/ha), in test [9] and in test [10] (0.4 kg/ha) was 9C in each case.

Consider `COC(=O)c1ccccc1S(=O)(=O)NC(=O)Nc1nc(OC)nc(OC)n1` [drawing 416], for which the response rating in [1] (0.4 kg/ha) came to 9C; in test [12] (0.4 kg/ha), 9C; in test [3] (0.4 kg/ha), 9C; in test [4] (0.4 kg/ha) it was 9C; in test [6] (0.4 kg/ha), 10C; in test [7] (0.4 kg/ha), 10C. Moreover, the response rating in test [8] (0.4 kg/ha) turned out to be 10C; in test [13] (0.4 kg/ha) it was 9C; in test [9] it was 9C; in test [10] (0.4 kg/ha) it was 10C; in [11] (0.4 kg/ha), 9C.

On to `CCCCCCCCCCOC(=O)c1ccccc1S(=O)(=O)NC(=O)Nc1nc(OC)cc(OC)n1` [drawing 427], for which the response rating in test [1] (0.4 kg/ha) was 5G; in test [2] (0.4 kg/ha) it was 1C; in test [12] (0.4 kg/ha) it was 2G; in test [3] (0.4 kg/ha) it was 9G; in [4] (0.4 kg/ha), 1H; in test [5] (0.4 kg/ha) it was 1C. In addition, the response rating is 8G in [6] (0.4 kg/ha), 1C in [8] (0.4 kg/ha) and 2G in test [13] (0.4 kg/ha).

As for `COC(=O)c1ccccc1S(=O)(=O)NC(=O)Nc1nnc(C)c(C)n1` [drawing 417], the response rating in test [1] (2 kg/ha) is 9C; in test [2] (2 kg/ha), 9C; in [12] (2 kg/ha), 9C; in test [3] (2 kg/ha), 9C; in [4] (2 kg/ha), 9C; in test [5] (2 kg/ha) it was 10C. Moreover, the response rating in test [6] (2 kg/ha), in test [13] (2 kg/ha), in [10] (2 kg/ha) and in test [11] (2 kg/ha) was 9C throughout.

Turning to `COc1nc(NC(=O)NS(=O)(=O)c2ccccc2C(=O)OC2CCCCC2)nc(OC)n1` [drawing 432], the response rating in test [1] (0.4 kg/ha) was found to be 5C; in test [2] (0.4 kg/ha), 0; in test [12] (0.4 kg/ha), 0; in [3] (0.4 kg/ha), 3G; in test [5] (0.4 kg/ha) it was 0; in test [6] (0.4 kg/ha), 2G. For the same compound, the results for the response rating in [7] (0.4 kg/ha) and in [13] (0.4 kg/ha) were 6H and 2G, respectively.

On to `CCCCCCCCCCOC(=O)c1ccccc1S(=O)(=O)NC(=O)Nc1nc(OC)nc(OC)n1` [drawing 429], for which the response rating in test [1] (0.4 kg/ha) is given as 5G; in [2] (0.4 kg/ha) it was 0; in test [12] (0.4 kg/ha), 3G; in test [3] (0.4 kg/ha), 7H; in test [4] (0.4 kg/ha), 7G; in test [5] (0.4 kg/ha), 0. For the same compound, the response rating is 2G in test [6] (0.4 kg/ha), 6H in [7] (0.4 kg/ha), 3G in test [13] (0.4 kg/ha) and 1C in [10] (0.4 kg/ha).

As to `COC(=O)c1ccccc1S(=O)(=O)NC(=O)Nc1nc(OC)cc(OC(C)C(=O)OC)n1` (centres unmarked) [drawing 468], the response rating in test [1] (0.4 kg/ha), in test [2] (0.4 kg/ha), in test [12] (0.4 kg/ha), in test [3] (0.4 kg/ha), in test [4] (0.4 kg/ha) and in [5] (0.4 kg/ha) was 9C in each case. Moreover, the response rating in test [6] (0.4 kg/ha), in test [7] (0.4 kg/ha), in test [8] (0.4 kg/ha), in test [13] (0.4 kg/ha), in test [9] and in [10] (0.4 kg/ha) was 9C each time.

Consider `Cc1cc(C)nc(NC(=O)NS(=O)(=O)c2ccccc2C(=O)O)n1` [drawing 444], for which the response rating in [12] (0.4 kg/ha) was determined as 2G; in test [3] (10 kg/ha) it was 3G; in [4] (10 kg/ha), 1C; in test [6] (10 kg/ha), 5G; in [10] (10 kg/ha), 2G.

For `CCOCCSc1cc(C)nc(NC(=O)NS(=O)(=O)c2ccccc2C(=O)OC)n1` [drawing 469], the response rating amounted to 9G in test [3] (0.4 kg/ha); 6G in test [5] (0.4 kg/ha); 8G in [6] (0.4 kg/ha); 9H in test [7] (0.4 kg/ha); 8G in test [13] (0.4 kg/ha); 9C in test [9]. Moreover, in test [11] (0.4 kg/ha), the response rating is 2C.

`COc1nc(NC(=O)NS(=O)(=O)c2ccccc2C(=O)OC(C)C)nc(OC)n1` [drawing 438]: the response rating in test [1] (0.4 kg/ha) is recorded as 9C; in test [2] (0.4 kg/ha), 2C; in [12] (0.4 kg/ha), 6G; in test [5] (0.4 kg/ha), 2C; in test [6] (0.4 kg/ha), 8C; in [14], 9C. Moreover, the response rating in test [8] (0.4 kg/ha) is given as 10C; in test [13] (0.4 kg/ha) it was 9C; in [10] (0.4 kg/ha), 8C; in [11] (0.4 kg/ha) it was 10C.

The values above are taken from US4383113A, “Agricultural sulfonamides” (E. I. Du Pont de Nemours and Company, priority 1981, dated 1983).
